{
  "source": "patent US8389680B2",
  "about": "“Treatment of Aspergillus infections with alpha thymosin peptides” (SciClone Pharmaceuticals, Inc., priority 2003, dated 2013)",
  "key": {"A. fumigatus [1]": {"tested_on": "A. fumigatus", "experiment": "BMT mice with invasive aspergillosis: survival, fungal growth in lungs (chitin assay), lung histology", "format": "in vivo", "from_the_text": "(§1) For infection with A. fumigatus, mice were intranasally injected for 3 consecutive days with a suspension of 2×10^7 conidia/20 microliter saline. For the quantification of fungal growth in the lungs, the chitin assay was used. The chitin content was expressed as micrograms of glucosamine per organ. The glucosamine content of lungs from uninfected mice was used as a negative control ranging between 0.80 and 2.25 microgram glucosamine/organ. For histological analysis, lungs were excised and immediately fixed in formalin. Sections (3 to 4 micron) of paraffin-embedded tissues were stained with the periodic acid-Schiff procedure. Thymosin alpha 1 (TA1) and the scrambled polypeptide are as purified sterile lyophilized acetylated polypeptides with endotoxin levels less than 0.03 pg/ml, by a standard limulus lysate assay. The sequences were as follows: Ac-[…]O (Thymosin alpha 1, SEQ ID NO.: 1) and Ac-[…]OH ([…]). Their lyophilized powders were reconstituted in sterile water.\n(§2) The treatments were as follows; in BMT-mice, TA1, at different doses administered intraperitoneally, sthymosin alpha 1, 400 microgram/kg administered intraperitoneally or human recombinant G-CSF 250 microgram/kg administered intravenously, were given daily beginning the day of the BM infusion, in concomitance with the infection and continuing for an additional 3 days. Amphotericin B was given daily for 3 days in concomitance with the infection, at a dose of 4000 microgram/kg, administered intraperitoneally. This dose would cure IA in cyclophosphamide-treated mice. Cyclophosphamide, 150 mg/kg administered intraperitoneally, was given a day before the infection. In cyclophosphamide-treated mice, 400 microgram/kg TA1 was given intraperitoneally for 5 consecutive days beginning the day of the infection.\nC57BL6 mice were exposed to a lethal dose of 9 Gy and infused with T cell-depleted donor cells from BALB/c mice."}, "Aspergillus conidia": {"tested_on": "Aspergillus conidia", "experiment": "Antifungal effector activity (conidiocidal activity) of macrophages and neutrophils", "format": "cell-based", "conditions": "TA1 treated mice", "experimental": "[…] In addition, the conidiocidal activity was assessed by determining the number of colony forming units and the percentage of colony forming units inhibition (mean±SE), referred to as conidiocidal activity."}, "TLR4/CD14": {"target": "T1, TLR4/CD14 (Homo sapiens, UniProt O00206)", "T1 construct": "expressed in transfected cells; host or cells: HEK293", "T1 sequence (O00206 24-839)": "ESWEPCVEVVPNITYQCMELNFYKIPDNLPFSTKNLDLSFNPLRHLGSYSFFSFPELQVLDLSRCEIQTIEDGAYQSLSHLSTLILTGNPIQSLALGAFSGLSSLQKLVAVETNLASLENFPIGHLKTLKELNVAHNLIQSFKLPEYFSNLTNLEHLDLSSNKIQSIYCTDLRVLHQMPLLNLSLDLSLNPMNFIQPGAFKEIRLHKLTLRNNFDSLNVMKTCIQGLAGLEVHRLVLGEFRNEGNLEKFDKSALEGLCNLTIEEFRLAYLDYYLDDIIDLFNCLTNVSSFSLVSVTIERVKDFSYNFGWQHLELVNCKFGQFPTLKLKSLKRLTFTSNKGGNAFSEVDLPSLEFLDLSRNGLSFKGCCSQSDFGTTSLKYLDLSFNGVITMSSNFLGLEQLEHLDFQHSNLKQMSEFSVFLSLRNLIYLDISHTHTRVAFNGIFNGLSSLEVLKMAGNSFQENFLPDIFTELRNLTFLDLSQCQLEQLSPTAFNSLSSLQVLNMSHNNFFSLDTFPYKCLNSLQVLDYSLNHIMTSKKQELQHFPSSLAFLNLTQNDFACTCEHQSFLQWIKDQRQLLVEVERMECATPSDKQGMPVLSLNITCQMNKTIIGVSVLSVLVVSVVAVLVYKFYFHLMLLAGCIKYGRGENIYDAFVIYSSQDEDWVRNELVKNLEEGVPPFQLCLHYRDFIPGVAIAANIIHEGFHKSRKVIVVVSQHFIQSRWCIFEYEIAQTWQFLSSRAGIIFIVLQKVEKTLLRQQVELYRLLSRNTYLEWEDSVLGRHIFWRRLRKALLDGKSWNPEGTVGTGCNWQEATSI", "experiment": "IL-8 production by TLR4/CD14-transfected HEK293 cells", "format": "cell-based", "experimental": "(§3) The human embryonic kidney cell line HEK293, wild type or stably transfected with human TLR2, TLR9 and TLR4/CD1427 were cultured in low glucose Dulbecco's modified Eagle's medium supplemented with 10% FCS, HEPES ([…]), L-glutamine ([…]), and gentamycin (50 microgram/ml). Transfectants were additionally supplemented with puromycin (100 microgram/ml). For stimulation experiments, cells were cultured at a density of 3 to 5×10^5 cells/wells in 12-well tissue culture plates overnight. Cells were washed and stimulated with 100 ng/ml TA1 either alone or together with TLR ligands for 5 h before the assessment of IL-8 production in the supernatants.\n(§4) The levels of TNF-alpha, IL-10, IL-12 p70, IFN-alpha and IL-8 in culture supernatants were determined by Kit ELISAs. The detection limits (pg/ml) of the assays were <3 (human) and <32 (murine) for TNF-alpha, <12 (murine) and <5 (human) for IL-10, <16 (murine) and <3 (human) for IL-12 p70 and <25 (human) IL-8. For human IFN-alpha <3 ng/ml. For enumeration of cytokine-producing cells, an ELISPOT assay was used on purified CD4^+ T cells and DCs from lungs."}, "A. fumigatus [2]": {"tested_on": "A. fumigatus", "experiment": "Local fungal growth after Aspergillus infection of TLR2-, TLR9- or MyD88-deficient mice", "format": "in vivo", "from_the_text": "(§5) Female, 8- to 10-weeks old, BALB/c and C57BL6 mice were from Charles River. NOD/SCID were from The Jackson. Breeding pairs of homozygous TLR2-, TLR9- and MyD88-deficient mice, raised on C57BL6 background, and of homozygous IFN-gamma- and IL-4-deficient mice, raised on BALB/c background, were bred under specific-pathogen free conditions.\nas §1\nas §2, with “In cyclophosphamide-treated mice, 400 microgram/kg TA1 was given intraperitoneally for 5 consecutive days beginning the day of the infection.” left out"}, "human TLR2": {"target": "T2, human TLR2 (Homo sapiens, UniProt O60603)", "T2 construct": "expressed in transfected cells; host or cells: HEK293", "T2 sequence (O60603 21-784)": "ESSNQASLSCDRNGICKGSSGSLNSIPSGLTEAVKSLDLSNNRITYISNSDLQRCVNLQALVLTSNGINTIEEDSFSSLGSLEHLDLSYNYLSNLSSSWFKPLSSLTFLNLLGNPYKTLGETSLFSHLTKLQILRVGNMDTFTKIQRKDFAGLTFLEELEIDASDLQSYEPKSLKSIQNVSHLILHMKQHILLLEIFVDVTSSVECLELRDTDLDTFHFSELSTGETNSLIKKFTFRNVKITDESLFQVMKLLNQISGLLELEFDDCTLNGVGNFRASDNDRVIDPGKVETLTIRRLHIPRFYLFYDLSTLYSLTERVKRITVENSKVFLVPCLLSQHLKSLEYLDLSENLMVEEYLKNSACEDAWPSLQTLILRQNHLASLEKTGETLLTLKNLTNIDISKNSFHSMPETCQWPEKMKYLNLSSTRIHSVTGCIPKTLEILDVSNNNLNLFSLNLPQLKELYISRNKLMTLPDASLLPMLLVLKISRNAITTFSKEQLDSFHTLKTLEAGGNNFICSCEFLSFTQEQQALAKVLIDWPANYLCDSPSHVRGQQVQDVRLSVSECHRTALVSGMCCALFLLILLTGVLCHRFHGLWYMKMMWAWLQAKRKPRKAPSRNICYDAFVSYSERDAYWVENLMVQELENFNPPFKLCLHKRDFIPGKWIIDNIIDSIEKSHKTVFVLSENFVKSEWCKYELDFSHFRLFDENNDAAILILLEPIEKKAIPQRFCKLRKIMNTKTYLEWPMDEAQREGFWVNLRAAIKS", "experiment": "IL-8 production by TLR2-transfected HEK293 cells", "format": "cell-based", "experimental": "as §3, §4"}, "A. fumigatus [3]": {"tested_on": "A. fumigatus", "experiment": "Therapeutic efficacy of TA1 in T cell-, IFN-gamma- or IL-4-deficient mice with aspergillosis", "format": "in vivo", "from_the_text": "as §5, §1\nas §2, with “In cyclophosphamide-treated mice, 400 microgram/kg TA1 was given intraperitoneally for 5 consecutive days beginning the day of the infection.” left out"}, "lung DCs": {"tested_on": "lung DCs", "experiment": "Activation of murine lung DCs: phagocytosis of Aspergillus conidia, costimulatory antigen expression, cytokine production", "format": "cell-based", "experimental": "For mature PDCs, immature DCs were cultured with the trimeric human CD40 ligand as above and 10 ng/ml IL-3. […] The expression of HLA Class II, CD80 and CD86 was high in both immature and mature DCs. Murine lung CD 11c^+ DCs (between 5 to 7% positive for CD8alpha and between 30 to 35% positive for Gr-1) were isolated by magnetic cell sorting. For phagocytosis, DCs were pre-exposed to 100 ng/ml TA1 for 60 minutes and subsequently incubated at 37° C. with Aspergillus conidia for an additional 60 minutes. The percentage of internalization was calculated and photographs were taken. In assessing functional maturation and cytokine determination, purified DCs were resuspended in Iscove's medium (with no serum but with polymixin B, to avoid non-specific activation by serum components and endotoxin) and pulsed with 100 ng/ml TA1 for 24 hours either alone or together with TLR ligands or unopsonized Aspergillus conidia. Cell surface phenotype was assessed by reacting samples with FITC- or PE-conjugated rat anti-mouse antibodies. Unrelated hisotype matched antibodies were used as control. The levels of TNF-alpha, IL-10, IL-12 p70, IFN-alpha and IL-8 in culture supernatants were determined by Kit ELISAs. The detection limits (pg/ml) of the assays were <3 (human) and <32 (murine) for TNF-alpha, <12 (murine) and <5 (human) for IL-10, <16 (murine) and <3 (human) for IL-12 p70 and <25 (human) IL-8. For human IFN-alpha <3 ng/ml. For enumeration of cytokine-producing cells, an ELISPOT assay was used on purified CD4^+ T cells and DCs from lungs."}, "[4]": {"conditions": "mice treated with both agents (TA1 and amphotericin B)"}, "[5]": {"conditions": "combined exposure to Aspergillus conidia and TA1"}},
  "note": "“Also recorded” adds a separate entry of the source.",
  "data": [
    {"substance": "Ac-Ser-Asp-Ala-Ala-Val-Asp-Thr-Ser-Ser-Glu-Ile-Thr-Thr-Lys-Asp-Leu-Lys-Glu-Lys-Lys-Glu-Val-Glu-Glu-Ala-Glu-Asn-O (Ac-SDAAVDTSSEITTKDLKEKKEVEEAEN-OH) [TA1, naturally occurring thymic peptide]", "values": [
      {"measurement": "protection compared with amphotericin B", "setting": "A. fumigatus [1]; 200 and 400 microgram/kg TA1, amphotericin B 4000 microgram/kg", "value": "superior to that of amphotericin B"},
      {"measurement": "survival (full protection)", "setting": "A. fumigatus [1]; 200 microgram/kg TA1", "value": "> 60", "unit": "days"},
      {"measurement": "survival (full protection)", "setting": "A. fumigatus [1]; 400 microgram/kg TA1", "value": "> 60", "unit": "days"},
      {"measurement": "fungal growth in the lungs", "setting": "A. fumigatus [1]; BMT mice with IA", "value": "dose-responsive reduction; also recorded: reduced fungal growth"},
      {"measurement": "survival", "setting": "A. fumigatus [1]; BMT mice with IA", "value": "increased survival"},
      {"measurement": "effect on protection, dose relation", "setting": "A. fumigatus [1]; BMT mice with IA, different doses", "value": "dose-dependent"},
      {"measurement": "cure of BMT mice with IA", "setting": "A. fumigatus [1]; intraperitoneally, daily", "value": "complete cure; also recorded: able to cure"},
      {"measurement": "lung pathology", "setting": "A. fumigatus [1]; lung sections, periodic acid-Schiff", "value": "decreases lung pathology"},
      {"measurement": "effect on therapeutic efficacy of amphotericin B", "setting": "A. fumigatus [1]; mice treated with both agents", "value": "increases the therapeutic efficacy of amphotericin B"},
      {"measurement": "fungal burden", "setting": "A. fumigatus [1]; [4]", "value": "decreased fungal burden"},
      {"measurement": "survival", "setting": "A. fumigatus [1]; [4]", "value": "increased survival"},
      {"measurement": "conidiocidal activity of macrophages", "setting": "Aspergillus conidia", "value": "higher"},
      {"measurement": "conidiocidal activity of neutrophils", "setting": "Aspergillus conidia", "value": "higher"},
      {"measurement": "production of IL-8", "setting": "TLR4/CD14; TA1 alone", "value": "did not induce"},
      {"measurement": "production of IL-8", "setting": "TLR4/CD14; in response to the TLR4 ligand LPS", "value": "did not induce"},
      {"measurement": "fungal growth", "setting": "A. fumigatus [2]; MyD88-deficient mice", "value": "not impaired"},
      {"measurement": "fungal growth", "setting": "A. fumigatus [2]; TLR2-deficient mice", "value": "similarly impaired"},
      {"measurement": "fungal growth", "setting": "A. fumigatus [2]; TLR9-deficient mice", "value": "similarly impaired"},
      {"measurement": "production of IL-8", "setting": "human TLR2; TA1 alone", "value": "did not stimulate"},
      {"measurement": "production of IL-8", "setting": "human TLR2; in response to zymosan", "value": "potentiated; also recorded: slightly increased"},
      {"measurement": "therapeutic efficacy", "setting": "A. fumigatus [3]; IL-4-deficient mice (increased Th1 cells)", "value": "improved therapeutic efficacy"},
      {"measurement": "therapeutic efficacy", "setting": "A. fumigatus [3]; mice devoid of IFN-gamma-producing Th1 cells", "value": "not as great"},
      {"measurement": "therapeutic efficacy", "setting": "A. fumigatus [3]; mice devoid of T cells", "value": "not as great"},
      {"measurement": "activation of lung DCs for phagocytosis of unopsonized conidia, costimulatory antigen expression and cytokine production", "setting": "lung DCs; 100 ng/ml", "value": "activates"},
      {"measurement": "expression of MHC Class II antigens, CD86 and CD40 molecules", "setting": "lung DCs; [5]", "value": "remarkably increased"},
      {"measurement": "frequency of IL-12 p70-producing DCs", "setting": "lung DCs; [5]", "value": "remarkably increased"},
      {"measurement": "frequency of IL-12 p70-producing DCs", "setting": "lung DCs; thymosin alone", "value": "also increased"}
    ]}
  ]
}
